Drawing on patent publication US11040975B2, “Carbocyclic nucleoside reverse transcriptase inhibitors” (Merck Sharp & Dohme Corp., priority 2017, dated 2021), this text covers IC50 for 14 compounds.

pIC50: −log10 of the molar value. Some results are limits rather than exact numbers.

For the first assay, the system named is HIV-1 (H9IIIB virus). Description: Viking assay: antiviral potency in a multiple round HIV-1 infection assay (MT4-GFP cells). It counts as cell-based. Particulars: Human immunodeficiency virus 1, MT4-GFP cells, 10% normal human serum; inhibition of reproductive ratio R0; read-out: Viking, IC50 (10% NHS). How it is done:
Assessing Antiviral Potency in a Multiple Round HIV-1 Infection Assay.
HIV-1 replication was monitored using MT4-gag-GFP clone D3 (hereafter designate MT4-GFP), which are MT-4 cells modified to harbor a GFP reporter gene, the expression of which is dependent on the HIV-1 expressed proteins tat and rev. Productive infection of an MT4-GFP cell with HIV-1 results in GFP expression approximately 24h post-infection.
MT4-GFP cells were maintained at 37° C./5% CO2/90% relative humidity in RPMI 1640 supplemented with 10% fetal bovine serum, 100 U/mL penicillin/streptomycin, and 400 μg/mL G418 to maintain the reporter gene. For infections, MT4-GFP cells were placed in the same medium lacking G418 and infected overnight with H9IIIB virus at an approximate multiplicity of infection of 0.01 in the same incubation conditions. Cells were then washed and re-suspended in either RPMI 1640 containing 10% or 50% normal human serum at 1.6×10^5 cells/mL. Compound plates were prepared by dispensing compounds dissolved in DMSO into wells of 384 well poly D lysine-coated plates ([…]) using an ECHO acoustic dispenser. Each compound was tested in a 10 point serial 3-fold dilution (typical final concentrations: 8.4 μM-0.43 nM). Controls included no inhibitor (DMSO only) and a combination of three antiviral agents (efavirenz, indinavir, and an integrase strand transfer inhibitor at final concentrations of 4 μM each). Cells were added (50 μL/well) to compound plates and the infected cells were maintained at 37° C./5% CO2/90% relative humidity.
Infected cells were quantified at two time points, ˜48h and ˜72h post-infection, by counting the number of green cells in each well using an Acumen eX3 scanner. The increase in the number of green cells over ˜24h period gives the reproductive ratio, R0, which is typically 5-15 and has been shown experimentally to be in logarithmic phase (data not shown). Inhibition of R0 is calculated for each well, and IC50s determined by non-linear 4-parameter curve fitting.
In the case of `N#C[C@@]1(CO)C[C@H](n2cnc3c(N)nc(F)nc32)C[C@H]1O` (single isomer, unassigned) [Example 73B, (1S,2S,4R)-4-(6-amino-2-fluoro-9H-purin-9-yl)-2-hydroxy-1-(hydroxymethyl)cyclopentane-1-carbonitrile or (1R,2R,4S)-4-(6-amino-2-fluoro-9H-purin-9-yl)-2-hydroxy-1-(hydroxymethyl)cyclopentane-1-carbonitrile], the pIC50 was 4.96.

The next assay addresses T1, HIV-1 RT enzyme (Human immunodeficiency virus type 1 group M subtype B, UniProt P04585).
T1 construct: Full-length wild-type and 2 mutant RT proteins were expressed in Escherichia coli BL21(DE3) cells and purified; made in house; host or cells: Escherichia coli BL21(DE3)
The experiment in a line: RT Polymerase Assay.
Settings: not given
It counts as biochemical. From the text:
The compounds of Formula I, and pharmaceutically acceptable salts thereof, are HIV reverse transcriptase inhibitors. The compounds are useful for inhibiting HIV reverse transcriptase and for inhibiting HIV replication in vitro and in vivo. More particularly, the compounds of Formula I inhibit the polymerase function of HIV-1 reverse transcriptase. The testing of compounds of the Examples of the invention in the assay set forth in the RT Polymerase Assay below, illustrates the ability of compounds of the invention to inhibit the RNA-dependent DNA polymerase activity of HIV-1 reverse transcriptase. The compounds of Formula I may also be useful agents against HIV-2.
Full-length wild-type and 2 mutant RT proteins were expressed in Escherichia coli BL21(DE3) cells and purified. Briefly, the heterodimeric nucleic acid substrate used in the HIV-1 RT polymerase reactions was generated by annealing biotinylated DNA primer to a 500 nucleotide RNA template. The HIV-1 RT enzyme (final concentration of 50 pM) was combined with an inhibitor compound or DMSO (10% DMSO in the final reaction mixture) in assay buffer (62.5 mM Tris-HCl, pH 7.8, 1.25 mM dithiothreitol, 7.5 mM MgCl2, 100 mM KCl, 0.03% CHAPS, 0.125 mM EGTA). This mixture was pre-incubated for 30 minutes at room temperature in microtiter plates. The polymerization reaction was initiated by the addition of template/primer substrate (final concentration: 16.6 nM) and dNTPs (final concentration: 2 μM dCTP, dGTP, dATP, and 66.6 nM Ru-dUTP). After 90 min of incubation at 37° C., reactions were quenched by the addition of EDTA (25 mM). The resulting mixture was incubated for an additional 5 minutes at room temperature followed by transferring the solution (50 μL) to blocked avidin plate from Meso Scale Discovery (MSD). The mixtures were incubated at room temperature for 60 min prior to the quantification of the reaction product via an ECL 6000 imager instrument.
Regarding `C#CC1(COP(=O)(O)OP(=O)(O)OP(=O)(O)O)CC(n2cnc3c(=O)[nH]c(N)nc32)CC1O` (racemic) [Example (+/−) 47, ((1S,2S,4R)-4-(2-amino-6-oxo-1,6-dihydro-9H-purin-9-yl)-1-ethynyl-2-hydroxycyclopentyl)methyl tetrahydrogen triphosphate and ((1R,2R,4S)-4-(2-amino-6-oxo-1,6-dihydro-9H-purin-9-yl)-1-ethynyl-2-hydroxycyclopentyl)methyl tetrahydrogen triphosphate], the negative logarithm of the IC50 (pIC50) is 6.49. `C#CC1(COP(=O)(O)OP(=O)(O)OP(=O)(O)O)CC(n2cc(C)c(=O)[nH]c2=O)CC1O` (racemic) [Example (+/−) 48, ((1S,2S,4R)-1-ethynyl-2-hydroxy-4-(5-methyl-2,4-dioxo-3,4-dihydropyrimidin-1(2H)-yl)cyclopentyl)methyl tetrahydrogen triphosphate and ((1R,2R,4S)-1-ethynyl-2-hydroxy-4-(5-methyl-2,4-dioxo-3,4-dihydropyrimidin-1(2H)-yl)cyclopentyl)methyl tetrahydrogen triphosphate] showed a pIC50 of 6.94. `C#CC1(COP(=O)(O)OP(=O)(O)OP(=O)(O)O)CC(n2ccc(N)nc2=O)CC1O` (racemic) [Example (+/−) 49, ((1S,2S,4R)-4-(4-amino-2-oxopyrimidin-1(2H)-yl)-1-ethynyl-2-hydroxycyclopentyl)methyl tetrahydrogen triphosphate and ((1R,2R,4S)-4-(4-amino-2-oxopyrimidin-1(2H)-yl)-1-ethynyl-2-hydroxycyclopentyl)methyl tetrahydrogen triphosphate] showed a pIC50 below 4.00. Take `N#CC1(COP(=O)(O)OP(=O)(O)OP(=O)(O)O)CC(n2cnc3c(=O)[nH]c(N)nc32)CC1O` (racemic) [Example (+/−) 75, ((1S,2S,4R)-4-(2-amino-6-oxo-1,6-dihydro-9H-purin-9-yl)-1-cyano-2-hydroxycyclopentyl)methyl tetrahydrogen triphosphate and ((1R,2R,4S)-4-(2-amino-6-oxo-1,6-dihydro-9H-purin-9-yl)-1-cyano-2-hydroxycyclopentyl)methyl tetrahydrogen triphosphate]: the pIC50 was 6.35. Still for that read-out and setting: for `Cc1cn(C2CC(O)C(C#N)(COP(=O)(O)OP(=O)(O)OP(=O)(O)O)C2)c(=O)[nH]c1=O` (racemic) [Example (+/−) 76, ((1S,2S,4R)-1-cyano-2-hydroxy-4-(5-methyl-2,4-dioxo-3,4-dihydropyrimidin-1(2H)-yl)cyclopentyl)methyl tetrahydrogen triphosphate and ((1R,2R,4S)-1-cyano-2-hydroxy-4-(5-methyl-2,4-dioxo-3,4-dihydropyrimidin-1(2H)-yl)cyclopentyl)methyl tetrahydrogen triphosphate] the value was 6.28.

The assay is the same for the next values; noted with them: HIV-1 RT 50 pM; 90 min at 37° C.; triphosphates tested; read-out: dNTP IC50.
For the compound “((1S,2S,4R)-4-(2,4-dichloro-7H-pyrrolo[2,3-d]pyrimidin-7-yl)-1-ethynyl-2-hydroxycyclopentyl)methyl tetrahydrogen triphosphate and ((1R,2R,4S)-4-(2,4-dichloro-7H-pyrrolo[2,3-d]pyrimidin-7-yl)-1-ethynyl-2-hydroxycyclopentyl)methyl tetrahydrogen triphosphate [Example (+/−) 45]”, the IC50 came out at 3.38e+07 pM.

Take “((1S,2S,4R)-4-(2,6-dichloro-9H-purin-9-yl)-1-ethynyl-2-hydroxycyclopentyl)methyl tetrahydrogen triphosphate and ((1R,2R,4S)-4-(2,6-dichloro-9H-purin-9-yl)-1-ethynyl-2-hydroxycyclopentyl)methyl tetrahydrogen triphosphate [Example (+/−) 43]”: the half-maximal inhibitory concentration (IC50) is above 1e+08 pM. Same read-out and setting: with “((1S,2S,4R)-4-(2-amino-6-chloro-9H-purin-9-yl)-1-ethynyl-2-hydroxycyclopentyl)methyl tetrahydrogen triphosphate and ((1R,2R,4S)-4-(2-amino-6-chloro-9H-purin-9-yl)-1-ethynyl-2-hydroxycyclopentyl)methyl tetrahydrogen triphosphate [Example (+/−) 42]” the figure was 1.32e+07 pM. Turning to “((1S,2S,4R)-4-(4-amino-2-chloro-7H-pyrrolo[2,3-d]pyrimidin-7-yl)-1-ethynyl-2-hydroxycyclopentyl)methyl tetrahydrogen triphosphate and ((1R,2R,4S)-4-(4-amino-2-chloro-7H-pyrrolo[2,3-d]pyrimidin-7-yl)-1-ethynyl-2-hydroxycyclopentyl)methyl tetrahydrogen triphosphate [Example (+/−) 46]”, the IC50 was 1.39e+07 pM. In the case of “((1S,2S,4R)-4-(6-amino-2-chloro-9H-purin-9-yl)-1-ethynyl-2-hydroxycyclopentyl)methyl tetrahydrogen triphosphate and ((1R,2R,4S)-4-(6-amino-2-chloro-9H-purin-9-yl)-1-ethynyl-2-hydroxycyclopentyl)methyl tetrahydrogen triphosphate [Example (+/−) 44]”, the 50% inhibitory concentration (IC50) was determined as 2.02e+07 pM. As for “((1S,2S,4R)-4-(6-amino-2-chloro-9H-purin-9-yl)-1-ethynyl-2-hydroxycyclopentyl)methyl tetrahydrogen triphosphate or ((1R,2R,4S)-4-(6-amino-2-chloro-9H-purin-9-yl)-1-ethynyl-2-hydroxycyclopentyl)methyl tetrahydrogen triphosphate [Example 44B]”, the IC50 was 9.32e+06 pM. For the compound “((1S,2S,4R)-4-(6-amino-2-fluoro-9H-purin-9-yl)-1-ethynyl-2-hydroxycyclopentyl)methyl tetrahydrogen triphosphate and ((1R,2R,4S)-4-(6-amino-2-fluoro-9H-purin-9-yl)-1-ethynyl-2-hydroxycyclopentyl)methyl tetrahydrogen triphosphate [Example (+/−) 41]”, the IC50 worked out at 3.46e+06 pM. In the case of “((1S,2S,4R)-4-(6-chloro-2-fluoro-9H-purin-9-yl)-1-ethynyl-2-hydroxycyclopentyl)methyl tetrahydrogen triphosphate and ((1R,2R,4S)-4-(6-chloro-2-fluoro-9H-purin-9-yl)-1-ethynyl-2-hydroxycyclopentyl)methyl tetrahydrogen triphosphate [Example (+/−) 40]”, the IC50 was above 1e+08 pM.

Usually pIC50 stands for the IC50 on a negative log10 scale, so that one unit is a factor of ten. One may read the IC50 as the concentration that inhibits the measured activity by half.
